# Columns and labels:
# Assay type in all cases: functional
# Mythimna separata [1] = assay: Insecticidal activity against Mythimna separata at 500 mg/kg
# Mythimna separata [2] = assay: Insecticidal activity against Mythimna separata at 200 mg/kg
# Mythimna separata [3] = assay: Insecticidal activity against Mythimna separata at 100 mg/kg
# Mythimna separata [4] = assay: Insecticidal activity against Mythimna separata at 25 mg/kg
# Mythimna separata [5] = assay: Insecticidal activity against Mythimna separata at 10 mg/kg
# Nephotettix cincticeps = assay: Insecticidal activity against Nephotettix cincticeps at 500 mg/kg
# Mythimna separata [6] = assay: Insecticidal activity against Mythimna separata at 50 mg/kg
# Tetranychus urticae [7] = assay: Acarcidal activity against Tetranychus urticae eggs at 200 mg/kg
# Tetranychus urticae [8] = assay: Acarcidal activity against Tetranychus urticae larvae at 200 mg/kg
Compound,Activity (Mythimna separata [1]) [%],Activity (Mythimna separata [2]) [%],Activity (Mythimna separata [3]) [%],Activity (Mythimna separata [4]) [%],Activity (Mythimna separata [5]) [%],Activity (Nephotettix cincticeps) [%],Activity (Mythimna separata [6]) [%],Activity (Tetranychus urticae [7]) [%],Activity (Tetranychus urticae [8]) [%]
CCCS/C(C)=N\OCc1ccc(NC(=O)NC(=O)c2c(F)cccc2F)cc1,75,15,10,10,0,–,–,–,–
CC(C)Oc1ccc(/C=N\OCc2ccc(NC(=O)NC(=O)c3c(F)cccc3F)cc2)cc1,0,–,–,–,–,–,–,–,–
CC(C)(C)c1ccc(/C=N\OCc2ccc(NC(=O)NC(=O)c3c(F)cccc3F)cc2)cc1,30,0,–,–,–,18.2,–,–,–
Cc1ccc(Oc2c(/C=N\OCc3ccc(NC(=O)NC(=O)c4c(F)cccc4F)cc3)c(C)nn2C)cc1C,60,0,0,0,0,24.3,0,–,–
O=C(NC(=O)c1c(F)cccc1F)Nc1ccc(CO/N=C(/c2ccc(Cl)cc2)C2CC2)cc1 [FLUCYCLOXURON],–,–,–,100,100,42.8,–,100,100
CCCCS/C(=N/OCc1ccc(NC(=O)NC(=O)c2c(F)cccc2F)cc1)c1ccc(C(C)(C)C)cc1,80,65,40,0,0,56.3,25,–,–
CCS/C(=N/OCc1ccc(NC(=O)NC(=O)c2c(F)cccc2F)cc1)C(C)C,100,100,50,0,0,41,–,76,43
Cc1cc(C)cc(Oc2c(/C=N\OCc3ccc(NC(=O)NC(=O)c4c(F)cccc4F)cc3)c(C)nn2C)c1,100,100,50,0,0,69.7,0,–,–
C/C(=N/OCc1ccc(NC(=O)NC(=O)c2c(F)cccc2F)cc1)n1cncn1,100,100,100,0,0,19.2,50,12,10
N#C/C(=N/OCc1ccc(NC(=O)NC(=O)c2c(F)cccc2F)cc1)c1ccccc1,25,0,0,0,0,50,0,–,–
O=C(NC(=O)c1c(F)cccc1F)Nc1ccc(CO/N=C\OCc2ccccc2)cc1,30,0,–,–,–,45.7,–,–,–
Cc1ccc(Oc2c(/C=N\OCc3ccc(NC(=O)NC(=O)c4c(F)cccc4F)cc3)c(C)nn2C)cc1,30,0,0,0,0,50,0,–,–
Cc1nn(-c2ccccc2)c(Cl)c1/C=N\OCc1ccc(NC(=O)NC(=O)c2c(F)cccc2F)cc1,100,40,0,0,0,62.5,0,–,–
O=C(NC(=O)c1c(F)cccc1F)Nc1ccc(CO/N=C\c2ccc3c(c2)OCO3)cc1,100,100,100,100,50,33.3,100,11,10
C/C(=N/OCc1ccc(NC(=O)NC(=O)c2c(F)cccc2F)cc1)c1ccc2c(c1)OCO2,100,100,100,70,15,–,90,10,7

# Reference: ChEMBL document CHEMBL1143046, “Synthesis and bioassay evaluation of 1-(4-substitutedideneaminooxymethyl)-phenyl-3-(2,6-difluorobenzoyl)ureas” (2007)
